The text below walks through data of ChEMBL document CHEMBL4680193, “Isoindoline scaffold-based dual inhibitors of HDAC6 and HSP90 suppressing the growth of lung cancer in vitro and in vivo” (Eur J Med Chem, 2020).

Series [1] can be described thus: Toxicity in BALB/c mouse xenografted with human NCI-H1975 cells assessed as reduction in body weight 50 to 100 mg/kg, ip administered for 2 weeks and measured after 2 week. Format: organism-based. To be noted: in vivo, 336 h, dose 50-100 mg/kg. On the technique in general: In xenograft studies the graft and the host belong to different species.
The target in the next series is T1, Histone deacetylase 8 (Homo sapiens, UniProt Q9BY41).
T1 sequence (Q9BY41 whole entry): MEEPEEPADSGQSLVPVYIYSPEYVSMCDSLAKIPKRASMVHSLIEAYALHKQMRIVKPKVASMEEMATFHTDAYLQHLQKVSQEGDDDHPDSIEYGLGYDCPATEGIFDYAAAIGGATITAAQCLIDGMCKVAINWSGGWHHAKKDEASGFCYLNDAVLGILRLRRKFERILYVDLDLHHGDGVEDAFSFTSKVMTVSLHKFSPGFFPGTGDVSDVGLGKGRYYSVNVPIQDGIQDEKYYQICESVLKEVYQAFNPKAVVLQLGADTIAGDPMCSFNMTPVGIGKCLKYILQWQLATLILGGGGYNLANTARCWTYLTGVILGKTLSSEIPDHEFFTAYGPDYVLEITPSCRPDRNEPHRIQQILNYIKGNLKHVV
Put plainly: Inhibition of recombinant human HDAC8 using RHK-K(Ac)-AMC as substrate by fluorescence based assay.

Series [2] deals with NCI-H1975. Put plainly: Antitumor activity against human NCI-H1975 cells xenografted in BALB/c mouse assessed as reduction in tumor volume at 50 mg/kg, ip administered for 2 weeks and measured after 2 week. Format: functional, organism-based.
Series [3] deals with NCI-H1975. Put plainly: Antitumor activity against human NCI-H1975 cells xenografted in BALB/c mouse assessed as reduction in tumor growth at 50 mg/kg, ip administered for 2 weeks and measured after 2 week relative to control. It is filed as functional. As to conditions: 336 h, read-out: TGI.
The target in series [4] is Heat shock protein HSP90 (Homo sapiens) (UniProt P07900+P08238). The series can be described thus: Inhibition of HSP90 in human NCI-H1975 cells assessed as downregulation of Akt expression at 0.03 to 0.3 uM measured upto 24 hrs by Western blot analysis. As to conditions: dose 0.03-0.3 µM, time hrs <=24. Format: cell-based.
Another series relates to A549. Put plainly: Growth inhibition of human A549 cells incubated for 48 hrs by SRB assay. Format: functional. As to conditions: Homo sapiens, A549.

The source made the active and inactive calls. The calls are words filed in the database; no cut-off is given here.

One may read the IC50 as the concentration at which inhibition is half-maximal. In general, GI50 refers to the concentration giving 50% growth inhibition. Low values mean more potent growth inhibition, high ones less potent growth inhibition. With `CC(C)c1cc(C(=O)N2Cc3ccc(NC(=O)CCCCCCCCC(=O)NO)cc3C2)c(O)cc1O`, the Activity result in series [1] is “Non-Toxic”. The IC50 on Histone deacetylase 8 came out at 3.72 µM. For the same molecule, in the series with NCI-H1975 [2], the outcome was Active. The inhibition in vivo at 50 mg/kg in the series on NCI-H1975 [3] came to 44.8%. The inhibition entry in series [4] is “Active”. The GI50 in the series with A549 worked out at 0.76 µM.
